Values of other authors as cited in patent publication US12274695B2, “Pharmaceutical drug therapy for autism” (priority 2020, dated 2025).
Where two headings read alike, the source gives them in different places.

Columns and labels:
[1] = tested on: fear conditioning; details: preclinical, after fear conditioning
[2] = tested on: monkey model of schizophrenia
[3] = in vivo
[4] = tested on: mouse model of Alzheimer's disease (AD)
[5] = tested on: humans; details: in humans
[6] = tested on: BTBR T+Itpr3 tf/J (BTBR) mice
[7] = tested on: adults with ASD; details: 7 mg transdermal nicotine, 1 week

CN1C(=O)CC[C@H]1c1cccnc1 [Cotinine]
extinction of fear memory and anxiety [1]: facilitated | working memory [2]: improved | blood-brain barrier crossing [3]: crosses the blood-brain barrier | plasma half-life compared with nicotine [3]: longer | working memory [4]: improved | addictive or cardiovascular effects [5]: no addictive or cardiovascular effects

CN1CCCC1c1cccnc1 (stereo not drawn) [nicotine, Nicotine]
repetitive behaviors ([6]; BTBR mice): decrease repetitive behaviors | social deficits ([6]; BTBR mice): improve social deficits | hotplate latency compared to vehicle ([6]; BTBR mice, higher doses): decreased | hotplate latency compared to vehicle ([6]; BTBR mice, lower doses): increased | antinociceptive effects to noxious heat ([6]; control mice): only at the high dose | cold plate resistance ([6]; mice with Autism mutations, four-week nicotine treatment): increase | Sleep ratings [7]: improved | Aberrant Behavior Checklist-Irritability (ABC-I) subscale change from baseline ([7]; compared to placebo, five subjects): improved | tolerability ([7]; eight subjects): tolerated nicotine treatment well
